The values below come from US12655106B2 (Eikonizo Therapeutics, Inc., priority 2021, dated 2026).

By IC50 is commonly meant the concentration needed to halve the response being measured. A low value points to higher potency.

In one assay the target is T1, Full length Human HDAC8 (Homo sapiens, UniProt Q9BY41).
T1 construct: Full length Human HDAC8; HIS (N); host or cells: baculovirus expression system
T1 sequence (Q9BY41 1-377): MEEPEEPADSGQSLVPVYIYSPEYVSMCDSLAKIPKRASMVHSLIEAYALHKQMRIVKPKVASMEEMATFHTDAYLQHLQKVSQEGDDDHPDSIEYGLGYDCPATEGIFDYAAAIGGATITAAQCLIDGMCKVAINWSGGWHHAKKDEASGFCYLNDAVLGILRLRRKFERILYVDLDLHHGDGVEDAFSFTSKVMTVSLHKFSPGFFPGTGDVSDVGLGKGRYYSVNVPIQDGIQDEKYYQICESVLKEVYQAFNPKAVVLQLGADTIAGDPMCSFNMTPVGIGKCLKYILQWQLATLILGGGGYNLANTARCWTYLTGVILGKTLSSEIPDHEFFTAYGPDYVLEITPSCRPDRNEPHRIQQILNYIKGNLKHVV
The assay is described as follows: Caliper endpoint assay for HDAC enzymatic activity (HDAC8). In kind it is biochemical. The settings on record: in vitro enzymatic, 30 min pre-incubation, 1 μM substrate peptide.

For another assay, the target named is T2, Full length Human HDAC6 (Homo sapiens, UniProt Q9UBN7).
T2 construct: Full length Human HDAC6; FLAG (C); host or cells: baculovirus expression system
T2 sequence (Q9UBN7 1-1215): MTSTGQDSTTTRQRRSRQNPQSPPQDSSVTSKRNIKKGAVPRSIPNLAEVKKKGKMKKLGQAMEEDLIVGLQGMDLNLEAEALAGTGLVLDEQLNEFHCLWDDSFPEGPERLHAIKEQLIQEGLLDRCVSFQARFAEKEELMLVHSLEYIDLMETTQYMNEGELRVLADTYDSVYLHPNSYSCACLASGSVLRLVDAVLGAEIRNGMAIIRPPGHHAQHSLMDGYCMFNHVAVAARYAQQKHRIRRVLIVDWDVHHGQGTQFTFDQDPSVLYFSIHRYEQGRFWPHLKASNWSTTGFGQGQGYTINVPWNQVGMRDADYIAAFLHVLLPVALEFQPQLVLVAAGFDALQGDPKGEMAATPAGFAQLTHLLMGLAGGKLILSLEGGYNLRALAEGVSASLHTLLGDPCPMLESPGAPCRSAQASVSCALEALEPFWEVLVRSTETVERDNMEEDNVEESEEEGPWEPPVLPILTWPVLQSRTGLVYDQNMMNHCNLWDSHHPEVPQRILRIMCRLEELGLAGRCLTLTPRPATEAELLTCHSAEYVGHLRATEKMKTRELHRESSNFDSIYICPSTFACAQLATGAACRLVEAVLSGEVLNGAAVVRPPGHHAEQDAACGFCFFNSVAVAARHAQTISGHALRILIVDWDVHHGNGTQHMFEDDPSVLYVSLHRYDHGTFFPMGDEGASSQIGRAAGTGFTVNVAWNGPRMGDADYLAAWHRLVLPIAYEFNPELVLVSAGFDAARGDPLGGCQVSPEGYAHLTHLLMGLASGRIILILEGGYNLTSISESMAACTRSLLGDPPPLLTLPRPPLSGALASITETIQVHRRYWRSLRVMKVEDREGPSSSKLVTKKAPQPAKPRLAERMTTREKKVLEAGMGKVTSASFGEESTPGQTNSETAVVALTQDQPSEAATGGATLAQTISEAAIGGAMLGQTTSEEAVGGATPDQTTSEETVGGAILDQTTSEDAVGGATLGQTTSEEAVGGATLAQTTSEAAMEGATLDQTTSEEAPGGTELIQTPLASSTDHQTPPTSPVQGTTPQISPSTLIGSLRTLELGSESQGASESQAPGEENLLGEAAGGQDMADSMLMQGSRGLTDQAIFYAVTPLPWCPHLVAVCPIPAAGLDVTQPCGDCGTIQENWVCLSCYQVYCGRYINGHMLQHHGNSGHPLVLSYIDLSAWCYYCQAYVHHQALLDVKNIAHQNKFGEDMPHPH
The assay is described as follows: Caliper endpoint assay for HDAC enzymatic activity (HDAC6). Format: biochemical. The settings on record: for IC50: in vitro enzymatic, Caliper endpoint assay, 30 min pre-incubation, 1 μM substrate peptide; for Selectivity (6 v 8): ratio of HDAC8 IC50/HDAC6 IC50.

Take `CN1CC[C@]2(CC[C@H](N3CCc4cc(C(=O)NO)cc(F)c4C3)C2)C1` (single isomer, unassigned) [Compound 403]: the IC50 against Full length Human HDAC8 lay in the range of 10000 to 100000 nM. For the same compound, on Full length Human HDAC6, the IC50 is 1 to 100 nM and the “Selectivity (6 v 8)” value was “V (V: >1000)”.
The corresponding values for `CC[C@H]1Cc2c(F)cc(C(=O)NO)cc2CN1CC1CC2CCC(C1)N2C1CC1` (single isomer, unassigned) [Compound 576] are 1000 to 10000 nM, 1 to 100 nM and “IV (IV: >100-1000)”.
The corresponding values for `O=C(NO)c1cc(F)c2c(c1)CCN([C@@H]1CCOC3(C1)CN(C1CC1)C3)C2` (single isomer, unassigned) [Compound 449] are 10000 to 100000 nM, 1000 to 10000 nM and “III (III: >10-100)”.
Consider `CC[C@H]1Cc2c(F)cc(C(=O)NO)cc2CN1C[C@H]1CCCCO1` (single isomer, unassigned) [Compound 231], for which the IC50 was 1000 to 10000 nM against Full length Human HDAC8 and 1 to 100 nM against Full length Human HDAC6. Moreover, the “Selectivity (6 v 8)” value on Full length Human HDAC6 is reported as “IV (IV: >100-1000)”.
On to `O=C(NO)c1cc(F)c2c(c1)CCN(C1CC3(CCCCN3C3CC3)C1)C2` (centres unmarked) [Compound 353, 2-(5-cyclopropyl-5-azaspiro[3.5]nonan-2-yl)-8-fluoro-3,4-dihydro-1H-isoquinoline-6-carbohydroxamic acid], for which the IC50 was in the range of 10000 to 100000 nM on Full length Human HDAC8 and 1 to 100 nM against Full length Human HDAC6. Moreover, on Full length Human HDAC6, the “Selectivity (6 v 8)” value is reported as “IV (IV: >100-1000)”.
The matching figures for `CN1CCC2(CCC(N3CCc4cc(C(=O)NO)cc(F)c4C3)C2)CC1` (centres unmarked) [Compound 417, 8-fluoro-N-hydroxy-2-(8-methyl-8-azaspiro[4.5]decan-2-yl)-1,2,3,4-tetrahydroisoquinoline-6-carboxamide]: 10000 to 100000 nM, 1 to 100 nM and “IV (IV: >100-1000)”.
Consider `O=C(NO)c1cc(F)c2c(c1)CCN([C@H]1CCC3(CCCCC3)C1)C2` (single isomer, unassigned) [Compound 109], for which the 50% inhibitory concentration (IC50) at Full length Human HDAC8 was in the range of 10000 to 100000 nM; on Full length Human HDAC6, 1 to 100 nM.
As for `CC[C@@H]1Cc2c(F)cc(C(=O)NO)cc2CN1C1CC2(CCCCC2)C1` (single isomer, unassigned) [Compound 232], the IC50 against Full length Human HDAC8 fell in the range of 10000 to 100000 nM; at Full length Human HDAC6, 100 to 1000 nM. Moreover, the “Selectivity (6 v 8)” value on Full length Human HDAC6 was “IV (IV: >100-1000)”.
Take `CC[C@H]1Cc2c(F)cc(C(=O)NO)cc2CN1CC1CC2CCC(C1)N2C` (single isomer, unassigned) [Compound 570]: the IC50 on Full length Human HDAC8 is 10000 to 100000 nM; at Full length Human HDAC6, 1 to 100 nM. Also, the “Selectivity (6 v 8)” value on Full length Human HDAC6 is “V (V: >1000)”.
In the case of `C[C@H]1C[C@H]2c3c(F)cc(C(=O)NO)cc3CCN2C1` (single isomer, unassigned) [Compound 154], the IC50 against Full length Human HDAC8 is 1000 to 10000 nM; against Full length Human HDAC6 it was 100 to 1000 nM.
Compound `CC[C@@H]1Cc2c(F)cc(C(=O)NO)cc2CN1C1CCCC1` (single isomer, unassigned) [Compound 580] gave an IC50 on Full length Human HDAC8 of 10000 to 100000 nM. In addition, at Full length Human HDAC6, the IC50 is 100 to 1000 nM and the “Selectivity (6 v 8)” value was “III (III: >10-100)”.
As to `CN1Cc2cc(C(=O)NO)ccc2[C@@H]2CCCN21` (single isomer, unassigned) [Compound 160], the IC50 against Full length Human HDAC8 and at Full length Human HDAC6 was 100 to 1000 nM in each case.
On Full length Human HDAC8, `O=C(NO)c1cc(F)c2c(c1)CCN([C@@H]1CCC3(CCCC3)C1)C2` (single isomer, unassigned) [Compound 184] had an IC50 of 1000 to 10000 nM. For the same compound, on Full length Human HDAC6, the IC50 fell in the range of 1 to 100 nM and the “Selectivity (6 v 8)” value is “IV (IV: >100-1000)”.
The matching figures for `CN1CC[C@@]2(CC[C@@H]2N2CCc3cc(C(=O)NO)cc(F)c3C2)C1` (single isomer, unassigned) [Compound 329]: 1000 to 10000 nM, 1 to 100 nM and “III (III: >10-100)”.
For the compound `O=C(NO)c1cc(F)c2c(c1)CCN([C@@H]1CCN(C3CC3)C3(CCC3)C1)C2` (single isomer, unassigned) [Compound 440], the IC50 against Full length Human HDAC8 was 1000 to 10000 nM. On Full length Human HDAC6, the IC50 lay in the range of 1 to 100 nM and the “Selectivity (6 v 8)” value was “IV (IV: >100-1000)”.
The corresponding values for `CN1CCC2(CC1)CC(N1CCc3cc(C(=O)NO)cc(F)c3C1)C2` [Compound 198, 8-fluoro-N-hydroxy-2-(7-methyl-7-azaspiro[3.5]nonan-2-yl)-1,2,3,4-tetrahydroisoquinoline-6-carboxamide] are 10000 to 100000 nM, 1 to 100 nM and “IV (IV: >100-1000)”.
The corresponding values for `CC1(C)C[C@H]2Cc3c(F)cc(C(=O)NO)cc3CN2C1` [Compound 128] are 1000 to 10000 nM, 100 to 1000 nM and “III (III: >10-100)”.
The matching figures for `CC(=O)N1CCC2(CCC2N2CCc3cc(C(=O)NO)cc(F)c3C2)CC1` (centres unmarked) [Compound 360, 2-(7-acetyl-7-azaspiro[3.5]nonan-3-yl)-8-fluoro-3,4-dihydro-1H-isoquinoline-6-carbohydroxamic acid]: 10000 to 100000 nM, 1 to 100 nM and “IV (IV: >100-1000)”.
As for `CC[C@H]1Cc2c(F)cc(C(=O)NO)cc2CN1CC1CCCCC1` (single isomer, unassigned) [Compound 518], at Full length Human HDAC8, the IC50 lay within 1000 to 10000 nM. On Full length Human HDAC6, the IC50 lay within 1 to 100 nM and the “Selectivity (6 v 8)” value is “IV (IV: >100-1000)”.
The matching figures for `O=C(NO)c1cc(F)c2c(c1)CCN(C1CCC3(CCCC3)CC1)C2` [Compound 193, 8-fluoro-2-spiro[4.5]decan-8-yl-3,4-dihydro-1H-isoquinoline-6-carbohydroxamic acid]: 10000 to 100000 nM, 1 to 100 nM and “V (V: >1000)”.
The matching figures for `CN1CCC[C@@]2(CC[C@@H]2N2CCc3cc(C(=O)NO)cc(F)c3C2)C1` (single isomer, unassigned) [Compound 364]: 10000 to 100000 nM, 1 to 100 nM and “IV (IV: >100-1000)”.
The corresponding values for `CC[C@@H]1Cc2c(F)cc(C(=O)NO)cc2CN1CC1CC2(CCCCC2)C1` (single isomer, unassigned) [Compound 521] are 100 to 1000 nM, 1 to 100 nM and “III (III: >10-100)”.
Take `CC1(C)CC(N2CCc3cc(C(=O)NO)cc(F)c3C2)C1` [Compound 201, 2-(3,3-dimethylcyclobutyl)-8-fluoro-3,4-dihydro-1H-isoquinoline-6-carbohydroxamic acid]: the IC50 at Full length Human HDAC8 lay in the range of 10000 to 100000 nM. Also, at Full length Human HDAC6, the IC50 lay within 1 to 100 nM and the “Selectivity (6 v 8)” value was “V (V: >1000)”.
For the compound `CC[C@@H]1CCCN1Cc1ccc(C(=O)NO)cc1F` [Compound 48], the IC50 lay within 1000 to 10000 nM at Full length Human HDAC8 and 1 to 100 nM at Full length Human HDAC6.
On Full length Human HDAC8, `CC[C@H]1Cc2c(F)cc(C(=O)NO)cc2CN1CC12CC(NC(C)=O)(C1)C2` (single isomer, unassigned) [Compound 525] returned an IC50 of 1000 to 10000 nM. Also, at Full length Human HDAC6, the IC50 lay within 1 to 100 nM and the “Selectivity (6 v 8)” value is given as “III (III: >10-100)”.
The corresponding values for `O=C(NO)c1cc(F)c2c(c1)CCN([C@@H]1CCNC3(CCC3)C1)C2` (single isomer, unassigned) [Compound 436] are 1000 to 10000 nM, 1 to 100 nM and “IV (IV: >100-1000)”.
